# From patent publication US20040224958A1, “Pyridopyrimidinone derivatives for treatment of neurodegenerative disease” (priority 2000, published 2004)
# Tests used:
# cdk4/D = cdk4/D (Homo sapiens, UniProt P11802); assay: Cyclin-Dependent Kinase 4 (cdk4) Assay; format: biochemical; conditions: Table 1; read-out: cdk4/D IC50
# Cdk5/p25 = Cdk5/p25 (Homo sapiens, UniProt Q00535); assay: Cyclin-Dependent Kinase 5 (cdk5) Assay; format: biochemical; conditions: Table 1
# Method: Cyclin-Dependent Kinase 5 (cdk5) Assay
# Enzyme assays for IC50 determinations and kinetic evaluation were performed in 96-well filter plates (Millipore MAPH NOB 10). […] All components except histone and ATP were added to wells, and the plate was placed on a shaker for 5 minutes. The reaction was started by adding histone and [^32P]ATP, and the plate was shaken at 30° C. for 45 minutes. The reaction was terminated by addition of 0.1 mL of 150 mM phosphoric acid. The plate was kept at 4° C. for 30 minutes to allow substrate to precipitate. The wells were then washed three times with 0.2 mL of 75 mM phosphoric acid and ^32P incorporation was determined with a beta plate counter (Wallac Inc, Gaithersburg, Md.).
# cdk2/cyclinE = cdk2/cyclinE (Homo sapiens, UniProt P24941); assay: Cyclin-Dependent Kinase Assay cdk2/cyclinE; conditions: cdk2/E IC50, Table 1
# cdk2/cyclinA = cdk2/cyclinA (Homo sapiens, UniProt P24941); assay: Cyclin-Dependent Kinase Assay cdk2/cyclinA; conditions: cdk2/A IC50, Table 1
# cdc2/cyclinB = cdc2/cyclinB (Homo sapiens, UniProt P06493); assay: Cyclin-Dependent Kinase Assay cdc2/cyclinB
# Sequence of cdc2/cyclinB (P06493 whole entry): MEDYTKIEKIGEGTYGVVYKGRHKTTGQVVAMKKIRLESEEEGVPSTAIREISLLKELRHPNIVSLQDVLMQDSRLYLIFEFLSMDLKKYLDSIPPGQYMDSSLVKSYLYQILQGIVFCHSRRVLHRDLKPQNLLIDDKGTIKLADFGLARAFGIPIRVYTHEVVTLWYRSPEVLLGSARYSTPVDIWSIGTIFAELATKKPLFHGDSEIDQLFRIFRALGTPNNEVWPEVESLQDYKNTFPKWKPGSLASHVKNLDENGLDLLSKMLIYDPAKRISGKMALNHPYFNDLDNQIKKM
# Sequence of cdc2/cyclinB (P14635 whole entry, further chain): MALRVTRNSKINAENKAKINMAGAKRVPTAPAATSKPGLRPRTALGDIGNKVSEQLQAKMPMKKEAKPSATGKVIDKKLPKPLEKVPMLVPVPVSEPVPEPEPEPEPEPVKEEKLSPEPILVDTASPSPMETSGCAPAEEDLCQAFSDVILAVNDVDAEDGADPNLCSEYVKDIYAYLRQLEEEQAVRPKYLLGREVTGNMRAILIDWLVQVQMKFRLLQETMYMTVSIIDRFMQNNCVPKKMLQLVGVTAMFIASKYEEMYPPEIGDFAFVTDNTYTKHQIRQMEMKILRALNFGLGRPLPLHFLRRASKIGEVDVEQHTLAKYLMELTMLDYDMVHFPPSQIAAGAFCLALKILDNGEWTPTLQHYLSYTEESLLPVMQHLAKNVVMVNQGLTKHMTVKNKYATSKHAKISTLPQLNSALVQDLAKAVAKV
# Sequence of cdk4/D (P11802 whole entry): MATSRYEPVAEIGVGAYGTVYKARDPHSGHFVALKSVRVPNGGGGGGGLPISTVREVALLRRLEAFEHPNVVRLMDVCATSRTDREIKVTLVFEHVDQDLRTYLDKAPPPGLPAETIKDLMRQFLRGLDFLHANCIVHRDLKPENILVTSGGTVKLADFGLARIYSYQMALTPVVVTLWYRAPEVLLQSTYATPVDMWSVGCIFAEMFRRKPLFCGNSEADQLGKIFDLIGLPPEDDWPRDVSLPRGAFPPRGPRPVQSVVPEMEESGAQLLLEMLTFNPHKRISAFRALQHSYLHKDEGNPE
# Sequence of cdk4/D (P24385 whole entry, further chain): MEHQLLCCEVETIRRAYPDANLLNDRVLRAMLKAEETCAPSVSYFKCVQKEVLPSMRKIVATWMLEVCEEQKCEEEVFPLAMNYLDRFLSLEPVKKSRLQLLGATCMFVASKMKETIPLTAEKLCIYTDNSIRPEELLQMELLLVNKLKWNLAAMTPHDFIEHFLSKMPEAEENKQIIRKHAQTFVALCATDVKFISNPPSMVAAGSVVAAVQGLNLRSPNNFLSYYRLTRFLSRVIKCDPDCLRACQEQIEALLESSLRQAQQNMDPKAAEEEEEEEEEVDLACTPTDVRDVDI
SMILES,IC50 (cdk4/D) [nM],IC50 (Cdk5/p25) [nM],melting point [°C],IC50 (cdk2/cyclinE) [nM],IC50 (cdk2/cyclinA) [nM],IC50 (cdc2/cyclinB) [nM]
"CC1CCN(c2ccc(Nc3ncc4ccc(=O)n(C5CCCCC5)c4n3)cc2)CC1 [Example 159, 8-Cyclohexyl-2-[4-(4-methyl-piperidin-1-yl)-phenylamino]-8H-pyrido[2,3-d]pyrimidin-7-one]",4.5,6.9,208 to 209,19.7,15,78.5
"CN1CCN(c2ccc(Nc3ncc4ccc(=O)n(C5CCCCC5)c4n3)cc2)CC1 [Example 133, 8-Cyclohexyl-2-[4-(4-methyl-piperazin-1-yl)-phenylamino]-8H-pyrido[2,3-d]pyrimidin-7-one]",4.5,6.9,205 to 207,19.7,15,78.5
"CC1CN(c2ccc(Nc3ncc4ccc(=O)n(C5CCCCC5)c4n3)cc2)CC(C)N1 (centres unmarked) [Example 145, 8-Cyclohexyl-2-14-(3,5-dimethyl-piperazin-1-yl)-phenylamino-8H-pyrido[2,3-d]pyrimidin-7-one]",4.5,17.3,237 to 239,45.5,32.5,146
"CCN(CC)CCOc1ccc(Nc2ncc3ccc(=O)n(C4CCCCC4)c3n2)cc1 [Example 132, 8-Cyclohexyl-2-[4-(2-diethylamino-ethoxy)-phenylamino]-8H-pyrido[2,3-d]pyrimidin-7-one]",10.5,25.9,135 to 137,91,60.5,373
"O=c1ccc2cnc(Nc3ccc(-n4cccc4)cc3)nc2n1C1CCCCC1 [Example 161, 8-Cyclohexyl-2-(4-pyrrole-1-yl-phenylamino)-811-pyrido[2,3-d]pyrimidin-7-one]",275,43.1,183 to 184,554,104,450
"O=c1ccc2cnc(Nc3ccc(N4CCc5ccccc5C4)cc3)nc2n1C1CCCCC1 [Example 171, 8-Cyclohexyl-2-[4-(3,4-dihydro-1H-isoquinolin-2-yl)-phenylamino]-8H-pyrido[2,3-d]pyrimidin-7-one]",,419,185,320,123,1210
"CN(C)c1ccc(Nc2ncc3ccc(=O)n(CCCOCc4ccccc4)c3n2)cc1 [Example 138, 8-(3-Benzyloxy-propyl)-2-(4-dimethylamino-phenylamino)-8H-pyrido[2,3-d]pyrimidin-7-one]",513,280,144 to 146,2630,217,3300
"O=c1ccc2cnc(Nc3ccc(F)cc3)nc2n1C1CC2CCC1C2 (centres unmarked) [Example 212, 8-Bicyclo[2.2.1]hept-2-yl-2-(4-fluoro-phenylamino)-8H-pyrido[2,3-d]pyrimidin-7-one]",29.7,10.1,219 to 220,14,16,189
"O=c1ccc2cnc(Nc3ccc(-n4cccn4)cc3)nc2n1C1CCCCC1 [Example 162, 8-Cyclohexyl-2-(4-pyrazol-1-yl-phenylamino)-8H-pyrido[2,3-d]pyrimidin-7-one]",89,42.5,241 to 242,87,35.7,267
"O=c1ccc2cnc(Nc3ccc(N4CCCCC4)cc3)nc2n1[C@@H]1C[C@H]2CC[C@@H]1C2 (relative stereo) [Example 181, 8-Bicyclo[2.2.1]hept-2-yl-2-(4-piperidin-1-yl-phenylamino)-8H-pyrido[2,3-d]pyrimidin-7-one]",57.7,591,243 to 244,,195,33400

# Other lines, results leading:
IC50 (cdk4/D) [nM],IC50 (Cdk5/p25) [nM],melting point [°C],IC50 (cdk2/cyclinE) [nM],IC50 (cdk2/cyclinA) [nM],IC50 (cdc2/cyclinB) [nM],SMILES
2.8,36,206,56,20.7,82.5,"O=c1ccc2cnc(Nc3ccc(N4CCC(O)CC4)cc3)nc2n1C1CC2CCC1C2 (centres unmarked) [Example 227, 8-Bicyclo[2.2.1]hept-2-yl-2-[4-(4-hydroxy-piperidin-1-yl)-phenylamino]-8H-pyrido[2,3-d]pyrimidin-7-one]"
2.1,167,152,85,63,220,"O=c1ccc2cnc(Nc3ccc(N4CCCC(CO)C4)cc3)nc2n1C1CC2CCC1C2 (centres unmarked) [Example 231, 8-Bicyclo[2.2.1]hept-2-yl-2-[4-(3-hydroxymethyl-piperidin-1-yl)-phenylamino]-8H-pyrido[2,3-d]pyrimidin-7-one]"
780,568,214 to 215,31900,6610,7070,"O=c1ccc2cnc(Nc3ccc(OC(F)(F)C(F)F)cc3)nc2n1C1CC2CCC1C2 (centres unmarked) [Example 219, 8-Bicyclo[2.2.1]hept-2-yl-2-[4-(1,1,2,2-tetrafluoro-ethoxy)-phenylamino]-8H-pyrido[2,3-d]pyrimidin-7-one]"
7.5,24.4,224 to 225,24,8.4,112,"O=c1ccc2cnc(Nc3ccc(N4CCC(O)CC4)cc3)nc2n1C1CCCCC1 [Example 215, 8-Cyclohexyl-2-[4-(4-hydroxy-piperidin-1-yl)-phenylamino]-8H-pyrido[2,3-d]pyrimidin-7-one]"
6.1,23.7,233 to 234,102,42.5,160,CN1CCN(c2ccc(Nc3ncc4ccc(=O)n(C5CC6CCC5C6)c4n3)cc2)CC1 (centres unmarked) [Example 252]
5.5,38.8,202,185,98.5,380,"O=c1ccc2cnc(Nc3ccc(N4CCC(CCO)CC4)cc3)nc2n1C1CC2CCC1C2 (centres unmarked) [Example 228, 8-Bicyclo[2.2.1]hept-2-yl-2-{4-[4-(2-hydroxy-ethyl)-piperidin-1-yl]-phenylamino}-8H-pyrido[2,3-d]pyrimidin-7-one]"
,53.2,133 to 134,75,81.5,200,"CCN(CC)CCOc1ccc(Nc2ncc3ccc(=O)n(C4CC5CCC4C5)c3n2)cc1 (centres unmarked) [Example 224, 8-Bicyclo[2.2.1]hept-2-yl-2-[4-(2-diethylamino-ethoxy)-phenylamino]-8H-pyrido[2,3-d]pyrimidin-7-one]"
115,66.2,227 to 228,50,57.8,1660,"O=c1ccc2cnc(Nc3ccc(F)c(F)c3)nc2n1C1CC2CCC1C2 (centres unmarked) [Example 220, 8-Bicyclo[2.2.1]hept-2-yl-2-(3,4-difluoro-phenylamino)-8H-pyrido[2,3-d]pyrimidin-7-one]"
6.9,395,150 to 151,,13.6,674,"O=c1ccc2cnc(Nc3ccc(N4CCCC(CCCO)C4)cc3)nc2n1C1CC2CCC1C2 (centres unmarked) [Example 236, 8-Bicyclo[2.2.1]hept-2-yl-2-{4-[3-(3-hydroxy-propy)-piperidin-1-yl]-phenylamino}-8H-pyrido[2,3-d]pyrimidin-7-one]"
11.5,300,160 to 161,149,110,670,O=c1ccc2cnc(Nc3ccc(N4CCCCC4CO)cc3)nc2n1C1CC2CCC1C2 (centres unmarked) [Example 253]
